Read-outs that look alike come from different tables or passages of the source.
Experiments:
[1] = IV pharmacokinetics; format: in vivo; set-up: C0: unit: ng/mL; conditions: Sprague Dawley rats, 2 mg/kg, normal saline
Procedure: Sprague Dawley rats were dosed intravenously using a normal saline formulation containing 2 mg/kg of the compounds identified in the below table. The table below summarizes the results of the IV pharmacokinetics.

[2] = biological target: T1, NMDAR2B expressing HEK cell membranes (Homo sapiens, UniProt Q05586+Q13224); assay: NMDAR agonist assay, [3H]MK-801 binding, NMDAR2B; format: biochemical; conditions: 50 μM glutamate; for EC50: [3H]MK-801 binding, read-out: NMDAR2B log EC50 (converted)
T1 construct: expressed in transfected cells; host or cells: HEK cells (membrane extract)
Procedure: (§1) (nonequilibrium conditions).
(§2) The baseline value was determined from the best fit curve of the DPM values modeled using the GraphPad program and the log(agonist) vs. response(three parameters) algorithm was then subtracted from all points in the dataset.

[3] = biological target: T2, NMDAR2B expressing HEK cell membranes (Homo sapiens, UniProt Q13224); assay: NMDAR agonist assay, [3H]MK-801 binding, NMDAR2B; format: biochemical; conditions: 50 μM glutamate; for EC50: [3H]MK-801 binding, read-out: NMDAR2B log EC50 (converted)
T2 construct: expressed in transfected cells; host or cells: HEK cells (membrane extract)
T2 sequence (Q13224 27-1484, other chains not shown): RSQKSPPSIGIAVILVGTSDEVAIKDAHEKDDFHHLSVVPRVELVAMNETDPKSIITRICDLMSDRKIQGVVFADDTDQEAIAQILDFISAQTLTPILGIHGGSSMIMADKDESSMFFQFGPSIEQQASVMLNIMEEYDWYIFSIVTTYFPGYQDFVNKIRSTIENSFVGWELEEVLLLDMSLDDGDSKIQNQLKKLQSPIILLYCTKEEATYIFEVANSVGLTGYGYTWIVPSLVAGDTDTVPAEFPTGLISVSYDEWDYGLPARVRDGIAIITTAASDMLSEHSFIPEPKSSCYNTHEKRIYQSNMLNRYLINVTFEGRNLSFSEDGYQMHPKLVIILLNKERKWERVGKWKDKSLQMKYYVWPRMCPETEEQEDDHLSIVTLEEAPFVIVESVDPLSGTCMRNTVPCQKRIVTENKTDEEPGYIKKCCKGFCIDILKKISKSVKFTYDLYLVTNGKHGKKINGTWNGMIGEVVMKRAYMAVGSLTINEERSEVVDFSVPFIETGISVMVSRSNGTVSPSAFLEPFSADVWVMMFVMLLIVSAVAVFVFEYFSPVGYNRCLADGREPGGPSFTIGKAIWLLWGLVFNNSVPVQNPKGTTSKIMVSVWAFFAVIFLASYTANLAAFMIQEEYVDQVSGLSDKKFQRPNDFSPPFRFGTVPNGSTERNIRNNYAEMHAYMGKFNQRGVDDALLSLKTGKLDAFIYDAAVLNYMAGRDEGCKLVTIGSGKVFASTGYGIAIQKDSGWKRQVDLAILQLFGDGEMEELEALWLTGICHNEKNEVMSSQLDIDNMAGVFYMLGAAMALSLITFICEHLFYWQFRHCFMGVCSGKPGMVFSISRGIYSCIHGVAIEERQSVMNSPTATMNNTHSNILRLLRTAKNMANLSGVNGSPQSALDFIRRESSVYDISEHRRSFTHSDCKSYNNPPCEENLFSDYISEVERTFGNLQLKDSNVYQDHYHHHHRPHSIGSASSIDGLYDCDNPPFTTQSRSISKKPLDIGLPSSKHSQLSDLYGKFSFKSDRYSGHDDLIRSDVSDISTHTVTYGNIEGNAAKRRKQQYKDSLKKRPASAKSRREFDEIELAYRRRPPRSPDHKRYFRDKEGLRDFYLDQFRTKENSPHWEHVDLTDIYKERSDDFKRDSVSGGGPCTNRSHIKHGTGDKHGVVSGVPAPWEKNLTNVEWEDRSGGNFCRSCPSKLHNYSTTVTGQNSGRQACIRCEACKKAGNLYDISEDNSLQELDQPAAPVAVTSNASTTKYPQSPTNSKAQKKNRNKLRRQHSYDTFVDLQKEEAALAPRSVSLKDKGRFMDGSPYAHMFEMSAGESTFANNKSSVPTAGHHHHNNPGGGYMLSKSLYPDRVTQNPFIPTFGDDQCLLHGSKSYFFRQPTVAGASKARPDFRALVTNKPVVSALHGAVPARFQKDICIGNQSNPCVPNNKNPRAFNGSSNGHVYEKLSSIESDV
Procedure: as §1, §2

[4] = Microsomal stability (Rat); format: in vitro ADME; conditions: rat microsomes
Procedure: (§3) Microsomal stability of disclosed compounds was investigated. The following table indicates the percent of compound remaining after 60 minutes.

[5] = Plasma stability (Rat); format: in vitro ADME
Procedure: (§4) Plasma stability of disclosed compounds was investigated. The following table indicates the percent of compound remaining after 60 minutes.

[6] = Oral pharmacokinetics (plasma, brain, CSF); format: in vivo; set-up: Cmax: unit: ng/mL; conditions: Sprague Dawley rats, per os, 10 mg/kg; for Tmax: normal saline
Procedure: In another experiment, Sprague Dawley rats were dosed per os using a normal saline formulation containing 10 mg/kg of the compounds identified in the table below. Plasma, brain, and CSF samples were analyzed at various time points over a 24 hour period. The table below summarizes the results of the oral pharmacokinetics.

[7] = Plasma stability (Human); format: in vitro ADME
Procedure: as §4

[8] = biological target: T3, NMDAR2C expressing HEK cell membranes (Homo sapiens, UniProt Q05586+Q14957); assay: NMDAR agonist assay, [3H]MK-801 binding, NMDAR2C; format: biochemical; conditions: 50 μM glutamate; [3H]MK-801 binding; read-out: NMDAR2C: log EC50 (converted)
T3 construct: expressed in transfected cells; host or cells: HEK cells (membrane extract)
T3 sequence (Q14957 20-1233, other chains not shown): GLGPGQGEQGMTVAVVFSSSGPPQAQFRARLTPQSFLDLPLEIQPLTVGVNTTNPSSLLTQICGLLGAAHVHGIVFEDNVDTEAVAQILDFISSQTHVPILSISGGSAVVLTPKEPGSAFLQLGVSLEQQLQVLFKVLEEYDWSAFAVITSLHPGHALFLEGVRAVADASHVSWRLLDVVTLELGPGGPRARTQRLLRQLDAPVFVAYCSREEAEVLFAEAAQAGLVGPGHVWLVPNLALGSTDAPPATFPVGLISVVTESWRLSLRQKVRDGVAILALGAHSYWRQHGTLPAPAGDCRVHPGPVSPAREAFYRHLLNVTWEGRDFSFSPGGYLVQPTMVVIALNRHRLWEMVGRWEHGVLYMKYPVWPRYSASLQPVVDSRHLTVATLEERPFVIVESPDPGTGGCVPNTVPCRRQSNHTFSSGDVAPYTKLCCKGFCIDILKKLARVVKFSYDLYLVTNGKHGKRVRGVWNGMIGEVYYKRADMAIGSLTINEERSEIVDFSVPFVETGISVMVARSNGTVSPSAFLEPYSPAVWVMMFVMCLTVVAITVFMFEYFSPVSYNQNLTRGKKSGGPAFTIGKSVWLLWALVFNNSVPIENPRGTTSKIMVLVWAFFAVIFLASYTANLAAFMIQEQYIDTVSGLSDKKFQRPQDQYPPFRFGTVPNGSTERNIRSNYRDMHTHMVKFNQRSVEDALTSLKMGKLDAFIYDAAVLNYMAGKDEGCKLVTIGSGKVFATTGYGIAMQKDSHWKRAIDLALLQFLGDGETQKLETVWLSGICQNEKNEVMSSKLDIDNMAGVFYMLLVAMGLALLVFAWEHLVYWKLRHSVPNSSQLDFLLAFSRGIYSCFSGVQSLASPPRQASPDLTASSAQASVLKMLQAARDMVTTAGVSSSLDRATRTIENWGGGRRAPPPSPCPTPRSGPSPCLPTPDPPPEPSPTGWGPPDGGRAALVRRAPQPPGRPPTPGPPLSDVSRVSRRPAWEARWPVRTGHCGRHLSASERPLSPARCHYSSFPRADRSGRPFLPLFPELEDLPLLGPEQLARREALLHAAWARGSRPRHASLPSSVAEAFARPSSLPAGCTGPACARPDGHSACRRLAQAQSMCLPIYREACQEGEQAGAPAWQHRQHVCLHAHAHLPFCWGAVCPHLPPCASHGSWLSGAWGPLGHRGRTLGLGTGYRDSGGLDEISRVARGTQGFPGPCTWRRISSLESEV
Procedure: as §1, §2

[9] = biological target: T4, NMDAR2C expressing HEK cell membranes (Homo sapiens, UniProt Q14957); assay: NMDAR agonist assay, [3H]MK-801 binding, NMDAR2C; format: biochemical; conditions: 50 μM glutamate
T4 construct: expressed in transfected cells; host or cells: HEK cells (membrane extract)
T4 sequence (Q14957 20-1233, other chains not shown): as above
Procedure: as §1, §2

[10] = tested on: positive (hedonic) 50-kHz ultrasonic vocalizations (USVs); assay: Positive Emotional Learning (PEL) test; format: in vivo; conditions: rat, PO, one hour after administration
Method in brief: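 Rats received test compound or vehicle (0.5% carboxymethyl cellulose in saline) 1 h before 3 min of experimenter-delivered rough-and-tumble play in alternating 15 s play and no-stimulation blocks. Frequency-modulated 50-kHz USVs during no-stimulation (CS) periods were counted; animals not habituated beforehand.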

[11] = biological target: T5, NMDAR2D expressing HEK cell membranes (Homo sapiens, UniProt O15399); assay: NMDAR agonist assay, [3H]MK-801 binding, NMDAR2D; format: biochemical; conditions: 50 μM glutamate; for EC50: [3H]MK-801 binding, read-out: NMDAR2D: log EC50 (converted)
T5 construct: expressed in transfected cells; host or cells: HEK cells (membrane extract)
Procedure: as §1, §2

[12] = Microsomal stability (Human); format: in vitro ADME; conditions: human microsomes
Procedure: as §3

[13] = biological target: T6, NMDAR2A expressing HEK cell membranes (Homo sapiens, UniProt Q12879); assay: NMDAR agonist assay, [3H]MK-801 binding, NMDAR2A; format: biochemical; conditions: 50 μM glutamate; for EC50: [3H]MK-801 binding, read-out: NMDAR2A: log EC50 (converted)
T6 construct: expressed in transfected cells; host or cells: HEK cells (membrane extract)
T6 sequence (Q12879 23-1464, other chains not shown): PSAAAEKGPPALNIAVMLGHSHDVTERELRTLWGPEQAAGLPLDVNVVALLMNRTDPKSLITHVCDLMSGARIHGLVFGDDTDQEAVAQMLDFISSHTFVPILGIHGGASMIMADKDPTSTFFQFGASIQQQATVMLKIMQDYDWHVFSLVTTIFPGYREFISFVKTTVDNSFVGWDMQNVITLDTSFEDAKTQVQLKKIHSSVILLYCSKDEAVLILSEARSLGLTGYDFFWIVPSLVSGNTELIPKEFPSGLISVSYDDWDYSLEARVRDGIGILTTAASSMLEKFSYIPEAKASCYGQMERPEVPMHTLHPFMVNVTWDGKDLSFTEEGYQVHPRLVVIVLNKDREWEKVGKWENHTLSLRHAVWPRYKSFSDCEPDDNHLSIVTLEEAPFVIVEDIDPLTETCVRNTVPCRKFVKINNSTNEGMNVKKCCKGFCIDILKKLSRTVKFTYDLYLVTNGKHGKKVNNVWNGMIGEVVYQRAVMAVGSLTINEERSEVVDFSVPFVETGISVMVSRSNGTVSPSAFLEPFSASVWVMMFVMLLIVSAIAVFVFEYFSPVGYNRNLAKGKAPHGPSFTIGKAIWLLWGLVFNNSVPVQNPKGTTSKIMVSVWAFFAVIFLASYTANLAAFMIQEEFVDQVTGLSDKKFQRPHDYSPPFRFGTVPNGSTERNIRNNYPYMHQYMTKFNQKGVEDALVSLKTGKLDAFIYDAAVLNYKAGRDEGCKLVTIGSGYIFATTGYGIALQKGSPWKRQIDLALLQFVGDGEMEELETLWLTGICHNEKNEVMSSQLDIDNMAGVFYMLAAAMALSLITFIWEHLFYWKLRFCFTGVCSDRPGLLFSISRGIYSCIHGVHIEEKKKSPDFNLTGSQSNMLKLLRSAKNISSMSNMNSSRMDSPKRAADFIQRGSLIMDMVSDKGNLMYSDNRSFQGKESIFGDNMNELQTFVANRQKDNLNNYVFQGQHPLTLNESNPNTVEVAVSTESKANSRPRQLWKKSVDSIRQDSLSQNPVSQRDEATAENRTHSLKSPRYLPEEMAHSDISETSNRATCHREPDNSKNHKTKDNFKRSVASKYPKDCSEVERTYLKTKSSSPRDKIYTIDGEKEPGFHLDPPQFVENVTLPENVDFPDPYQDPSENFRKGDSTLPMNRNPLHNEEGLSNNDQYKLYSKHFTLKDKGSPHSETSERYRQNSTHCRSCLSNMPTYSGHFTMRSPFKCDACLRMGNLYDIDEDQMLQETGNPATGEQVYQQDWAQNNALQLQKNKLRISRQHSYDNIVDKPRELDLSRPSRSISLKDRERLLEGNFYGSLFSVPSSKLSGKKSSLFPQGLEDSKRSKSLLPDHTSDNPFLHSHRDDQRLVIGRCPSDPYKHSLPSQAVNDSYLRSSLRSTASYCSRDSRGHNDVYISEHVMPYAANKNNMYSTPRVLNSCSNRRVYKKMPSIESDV
Procedure: as §1, §2

[14] = biological target: T7, NMDAR2D expressing HEK cell membranes (Homo sapiens, UniProt O15399+Q05586); assay: NMDAR agonist assay, [3H]MK-801 binding, NMDAR2D; format: biochemical; conditions: 50 μM glutamate; for EC50: [3H]MK-801 binding, read-out: NMDAR2D: log EC50 (converted)
T7 construct: expressed in transfected cells; host or cells: HEK cells (membrane extract)
Procedure: as §1, §2

[15] = biological target: T8, NMDAR2A expressing HEK cell membranes (Homo sapiens, UniProt Q05586+Q12879); assay: NMDAR agonist assay, [3H]MK-801 binding, NMDAR2A; format: biochemical; conditions: 50 μM glutamate
T8 construct: expressed in transfected cells; host or cells: HEK cells (membrane extract)
Procedure: as §1, §2

[16] = Sprague Dawley, rat, in vivo, iv
[17] = Sprague Dawley, rat, plasma, po

| Vss [1] | EC50 [2] | NMDAR2B: % maximal [3H]MK-801 binding relative to 1 mM glycine [3] | Microsomal (Rat): percent of compound remaining after 60 minutes [4] | Plasma (Rat): percent of compound remaining after 60 minutes [5] | CSF Cmax [6] | Brain Cmax [6] | Plasma (Human): percent of compound remaining after 60 minutes [7] | EC50 [8] | NMDAR2C A: % maximal [3H]MK-801 binding relative to 1 mM glycine [9] | EC50 [11] | NMDAR2D: % maximal [3H]MK-801 binding relative to 1 mM glycine [11] | Microsomal (Human): percent of compound remaining after 60 minutes [12] | EC50 [13] | NMDAR2A: % maximal [3H]MK-801 binding relative to 1 mM glycine [13] | EC50 [3] | EC50 [14] | Compound | Max Effect (mean number of 50 kHz USVs per 15 seconds) ([10]; dose 0.1 mg/kg) | also measured |
| --- | --- | --- | --- | --- | --- | --- | --- | --- | --- | --- | --- | --- | --- | --- | --- | --- | --- | --- | --- |
| 2.45 L/kg | < 1 nM | + (<100%=+) | 87% | 87% | 0 ng/mL | 0 ng/mL | 88% | < 1 nM | + (<100%=+) | < 1 nM | + (<100%=+) | 88% | < 1 nM | + (<100%=+) |  |  | C[C@@H](O)[C@H](NC(=O)C1CCC2(CNC2=O)N1Cc1ccccc1)C(N)=O (single isomer, unassigned) [AN] | * (*: 6-10.9) | AUClast [1]: 727.7 ng·h/mL; C0 [1]: 3209.4 ng/mL; Cl [1]: 45.98 mL/min/kg; T1/2 [1]: 4.67 h; % F [6]: 3%; AUClast [6]: 126.32 ng·h/mL; Tmax [6]: 0.42 h; Cmax ([6]; plasma): 38.9 ng/mL |
|  |  | + (<100%=+) | 83% | 85% |  |  | 92% |  | + (<100%=+) |  | − (−=0) | 77% | < 1 nM | + (<100%=+) | < 1 nM | > 100 nM | O=C1NCC12CCC1(CNC1=O)N2Cc1ccccc1 (single isomer, unassigned) [AC-3, 5-benzyl-2,5,8-triazadispiro[3.1.36.24]undecane-1,7-dione] |  |  |
| 1.21 L/kg | < 1 nM | + (<100%=+) | 99% | 87% | 0 ng/mL | 0 ng/mL | 88% | > 100 nM | − (−=0) |  |  | 95% | < 1 nM | + (<100%=+) |  | < 1 nM | C[C@@H](O)[C@H](NC(=O)C1CCC2(CNC2=O)N1Cc1ccccc1)C(N)=O (single isomer, unassigned) [AM] | * (*: 6-10.9) | AUC(0-t) [1, 16]: 1000 ng·h/mL; clearance [1, 16]: 33.3 mL/min/kg; half-life [1, 16]: 2.38 h; C0 ([1]; Sprague Dawley, rat, in vivo, iv, read-out: C0): 3460 ng/mL; AUC(0-t) [6, 17]: 97.6 ng·h/mL; bioavailability [6, 17]: 2%; Tmax ([6]; Sprague Dawley, rat, plasma, po, read-out: Tmax): 0.33 h; Cmax ([6]; Sprague Dawley, rat, plasma, po, plasma, read-out: Cmax): 34.2 ng/mL; Emax ([14]; relative to 1 mM glycine, read-out: NMDAR2D: % maximal [3H]MK-801 binding relative to 1 mM glycine): < 100% |
|  |  | + (<100%=+) |  |  |  |  |  |  | + (<100%=+) | < 1 nM | + (<100%=+) |  | > 100 nM | − (−=0) | < 1 nM |  | CC(C)(C)OC(=O)N1CC2(CNC2=O)CC12CNC2=O (centres unmarked) [AY-1] |  | EC50 ([9]; [3H]MK-801 binding, read-out: NMDAR2C: log EC50 (converted)): < 1 nM |
|  | < 1 nM |  | 100% | 94% |  |  | 94% | < 1 nM | + (<100%=+) |  | + (<100%=+) | 98% |  |  |  | < 1 nM | O=C1NCC12CCC1(CNC1=O)N2Cc1ccccc1 (single isomer, unassigned) [AC-2, 5-benzyl-2,5,8-triazadispiro[3.1.36.24]undecane-1,7-dione] |  | Emax ([2]; relative to 1 mM glycine, read-out: NMDAR2B: % maximal [3H]MK-801 binding relative to 1 mM glycine): < 100%; Max Effect (mean number of 50 kHz USVs per 15 seconds) ([10]; dose 0.001-1 mg/kg): * (*: 6-10.9); EC50 ([15]; [3H]MK-801 binding, read-out: NMDAR2A: log EC50 (converted)): < 1 nM; Emax ([15]; relative to 1 mM glycine, read-out: NMDAR2A: % maximal [3H]MK-801 binding relative to 1 mM glycine): < 100% |

— patent US11028095B2, “Spiro-lactam and bis-spiro-lactam NMDA receptor modulators and uses thereof” (Aptinyx Inc., priority 2016, dated 2021)
